# Reference: ChEMBL document CHEMBL1201862, “PubChem BioAssay data set” (2004)
# Activity calls are given as the source filed them.
# Experiments:
# HEK293 [1] = experiment: inhibition of NOD1-driven NF-kB reporter – cell-based, luminescence, uHTS, primary screen (AID 1578); format: functional; settings: Homo sapiens
# HEK293 [2] = experiment: NOD2 signaling inhibitors in MDP-stimulated cells, cell-based, uHTS, luminescence (AID 2001); format: functional; settings: Homo sapiens
# HEK293 [3] = experiment: cells; format: functional, cell-based; settings: Homo sapiens
# [4] = biological target: T1, DNA repair protein RAD52 homolog (Homo sapiens, UniProt P43351); format: functional, biochemical
# T1 sequence (P43351 whole entry): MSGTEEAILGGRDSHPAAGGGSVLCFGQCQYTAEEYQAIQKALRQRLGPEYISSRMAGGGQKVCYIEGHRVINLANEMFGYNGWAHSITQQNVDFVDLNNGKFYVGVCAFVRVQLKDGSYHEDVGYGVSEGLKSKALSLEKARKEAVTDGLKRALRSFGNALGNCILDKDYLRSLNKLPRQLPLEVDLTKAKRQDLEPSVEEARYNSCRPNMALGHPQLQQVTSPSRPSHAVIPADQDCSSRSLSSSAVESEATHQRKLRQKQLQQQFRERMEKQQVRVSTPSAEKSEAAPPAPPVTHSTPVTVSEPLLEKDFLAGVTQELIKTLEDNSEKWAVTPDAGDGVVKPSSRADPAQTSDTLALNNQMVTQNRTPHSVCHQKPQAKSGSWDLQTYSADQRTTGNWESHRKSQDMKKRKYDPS
# [5] = biological target: Delta-type opioid receptor (Homo sapiens, UniProt P41143); experiment: Counterscreen for agonists of heterodimerization of the mu 1 (OPRM1) and delta 1 (OPRD1) opioid receptors: Luminescence-based cell-based high throughput dose response assay to identify agonists of OPRD1 homodimerization. [Related pubchem assays (depositor defined):AID504326, AID504355, AID504692, AID504904, AID504905]; format: functional
# [6] = biological target: T2, Short transient receptor potential channel 4 (Mus musculus, UniProt Q9QUQ5); experiment: calcium entry via TRPC4 opening agents – cell-based, HEK293 TRPC4/mu-opioid, Fluo-4 calcium, dose response (AID 434937); format: functional
# T2 sequence (Q9QUQ5 whole entry): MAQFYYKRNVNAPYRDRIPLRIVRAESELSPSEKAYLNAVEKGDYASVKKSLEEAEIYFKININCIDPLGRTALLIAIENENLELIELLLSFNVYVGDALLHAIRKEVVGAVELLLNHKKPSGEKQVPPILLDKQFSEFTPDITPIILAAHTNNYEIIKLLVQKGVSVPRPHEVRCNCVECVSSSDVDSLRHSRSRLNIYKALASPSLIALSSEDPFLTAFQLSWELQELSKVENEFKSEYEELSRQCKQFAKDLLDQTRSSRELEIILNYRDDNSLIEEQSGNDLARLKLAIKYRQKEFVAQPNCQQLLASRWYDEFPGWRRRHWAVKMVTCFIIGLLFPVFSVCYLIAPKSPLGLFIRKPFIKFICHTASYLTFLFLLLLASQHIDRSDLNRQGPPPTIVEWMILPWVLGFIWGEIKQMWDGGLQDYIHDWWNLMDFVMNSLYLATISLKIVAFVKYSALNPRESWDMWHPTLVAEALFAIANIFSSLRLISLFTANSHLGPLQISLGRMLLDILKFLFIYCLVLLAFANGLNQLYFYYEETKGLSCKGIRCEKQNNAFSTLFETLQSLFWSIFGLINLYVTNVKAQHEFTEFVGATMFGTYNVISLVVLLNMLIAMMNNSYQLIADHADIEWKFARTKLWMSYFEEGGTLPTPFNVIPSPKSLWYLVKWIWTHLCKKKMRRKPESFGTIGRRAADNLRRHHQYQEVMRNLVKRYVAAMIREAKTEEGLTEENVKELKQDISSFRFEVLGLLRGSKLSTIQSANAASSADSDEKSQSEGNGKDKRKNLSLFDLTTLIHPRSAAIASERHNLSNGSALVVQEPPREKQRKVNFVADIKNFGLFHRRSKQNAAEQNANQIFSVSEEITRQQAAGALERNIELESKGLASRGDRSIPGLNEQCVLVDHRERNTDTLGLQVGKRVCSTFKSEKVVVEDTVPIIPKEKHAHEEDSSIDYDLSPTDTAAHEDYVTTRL
# [7] = biological target: 5-hydroxytryptamine receptor 5A (Homo sapiens, UniProt P47898); experiment: Counterscreen for agonists of OPRM1-OPRD1 heterodimerization: luminescence-based cell-based high throughput dose response assay to identify agonists of 5-hydroxytryptamine (serotonin) 5A receptor (HTR5A). [Related pubchem assays (depositor defined):AID504326, AID504355, AID504692, AID504904, AID504905]; format: functional
# [8] = A Cell Based Secondary Assay To Explore Cytotoxicity of Compounds that Sensitize Mycobacterium Tuberculosis to Beta-Lactam Antibiotics.; format: functional
# Mu-type opioid receptor = Mu-type opioid receptor (Homo sapiens, UniProt P35372); experiment: Counterscreen for agonists of heterodimerization of the mu 1 (OPRM1) and delta 1 (OPRD1) opioid receptors: Luminescence-based cell-based high throughput dose response assay to identify agonists of OPRM1 homodimerization.; format: functional;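 note: U2OS cells expressing OPRM1 and beta-arrestin as split beta-galactosidase partners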
# Coagulation factor XII = biological target: T3, Coagulation factor XII (Homo sapiens, UniProt P00748); format: functional;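 note: activated factor XIIa alpha cleaving a fluorogenic AMC peptide substrate; inhibitor potency from loss of enzyme activity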
# T3 sequence (P00748 whole entry): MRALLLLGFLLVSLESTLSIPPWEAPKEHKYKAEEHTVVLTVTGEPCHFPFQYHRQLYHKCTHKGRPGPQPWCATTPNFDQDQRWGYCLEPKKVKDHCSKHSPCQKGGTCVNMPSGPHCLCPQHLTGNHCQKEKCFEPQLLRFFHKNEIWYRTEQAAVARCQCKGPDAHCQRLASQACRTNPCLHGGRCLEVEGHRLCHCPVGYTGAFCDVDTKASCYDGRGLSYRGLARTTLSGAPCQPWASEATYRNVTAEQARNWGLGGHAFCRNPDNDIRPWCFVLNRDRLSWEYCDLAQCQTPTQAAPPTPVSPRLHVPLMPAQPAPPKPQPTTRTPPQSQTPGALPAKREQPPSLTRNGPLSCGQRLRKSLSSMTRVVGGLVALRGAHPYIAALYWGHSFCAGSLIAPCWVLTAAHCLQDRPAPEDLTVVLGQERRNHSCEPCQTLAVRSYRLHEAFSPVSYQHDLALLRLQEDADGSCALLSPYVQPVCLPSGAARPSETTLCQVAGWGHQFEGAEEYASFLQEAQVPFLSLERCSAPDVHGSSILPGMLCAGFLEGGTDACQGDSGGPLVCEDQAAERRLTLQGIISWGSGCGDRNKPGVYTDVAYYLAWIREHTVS
# Large T antigen = Large T antigen (Simian virus 40, UniProt P03070); format: functional, Betapolyomavirus macacae;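 note: Confirmatory-stage PubChem screen for compounds that inhibit SV40 T antigen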
# Bcl-2-related protein A1 = biological target: T4, Bcl-2-related protein A1 (Mus musculus, UniProt Q07440); format: functional;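 note: confirmatory dose–response counterscreen on Bfl-1, used to check hits from a UBC13 polyubiquitin inhibitor campaign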
# T4 sequence (Q07440 whole entry): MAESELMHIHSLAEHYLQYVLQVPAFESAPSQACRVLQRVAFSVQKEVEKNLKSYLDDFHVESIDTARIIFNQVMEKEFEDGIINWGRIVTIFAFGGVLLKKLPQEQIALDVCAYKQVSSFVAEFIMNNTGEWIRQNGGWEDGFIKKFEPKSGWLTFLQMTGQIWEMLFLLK
# [9] = biological target: T5, Ubiquitin-conjugating enzyme E2 N (Homo sapiens, UniProt P61088); format: functional
# T5 sequence (P61088 whole entry): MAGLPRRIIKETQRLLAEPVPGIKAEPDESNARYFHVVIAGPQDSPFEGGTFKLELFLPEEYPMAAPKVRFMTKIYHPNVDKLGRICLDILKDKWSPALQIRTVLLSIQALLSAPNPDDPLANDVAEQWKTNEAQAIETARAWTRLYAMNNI
# [10] = biological target: T5, Ubiquitin-conjugating enzyme E2 N; format: functional; remark: listed apart in the source
# [11] = luciferase reporter signal suppression in cells – H4 neuroglioma cells, luminescence, dose response (AID 1990); format: functional, cell-based
# [12] = alpha-synuclein stem-loop luciferase translation blockers – H4 neuroglioma cells, luminescence, confirmation (AID 1988); format: functional, cell-based
# [13] = system: Streptococcus sp. 'group A'; experiment: Streptococcus pyogenes SK(-)GAS viability under kanamycin – luminescence, BacTiterGlo, confirmation, counter-screen for streptokinase expression inhibitor project, dose response (AID 1900); format: functional, organism-based
# Streptococcus = experiment: GAS UMAA2166 growth inhibition – luminescence, BacTiterGlo, counter-screen for streptokinase expression inhibitor project, dose response (AID 1915); format: functional, organism-based;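 note: potency for reduction of bacterial viability or growth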
# INS1 = experiment: INS-1E survival protection against cytokine death – cell-based, luminescence, retest, dose response (AID 449756); format: functional; settings: Rattus norvegicus;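 note: cell death triggered by IL-1 beta plus TNF-alpha plus IFN-gamma mixture; protective hits raise ATP signal compared with cytokine alone wells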
# [14] = Luminescence Cell-Based Dose Response HTS to Identify Inhibitors of 5'UTR Stem-Loop Driven Prion Protein mRNA Translation in H4 Neuroglioblastoma Cells. [Related pubchem assays: 1827 (Project Summary), 1813 (Primary HTS)]; format: functional
# Sequence of Mu-type opioid receptor (P35372 whole entry): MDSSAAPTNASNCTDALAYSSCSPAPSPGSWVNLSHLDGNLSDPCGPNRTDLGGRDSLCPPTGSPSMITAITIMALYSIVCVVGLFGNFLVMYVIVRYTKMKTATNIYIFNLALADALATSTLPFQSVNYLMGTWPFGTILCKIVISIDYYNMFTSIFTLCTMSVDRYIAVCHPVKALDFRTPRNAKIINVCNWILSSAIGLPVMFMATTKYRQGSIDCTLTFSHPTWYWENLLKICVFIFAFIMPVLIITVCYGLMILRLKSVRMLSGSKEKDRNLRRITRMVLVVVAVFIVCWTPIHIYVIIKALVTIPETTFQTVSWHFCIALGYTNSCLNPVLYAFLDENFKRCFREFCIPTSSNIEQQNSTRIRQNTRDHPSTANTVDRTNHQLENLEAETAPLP
# Sequence of Delta-type opioid receptor (P41143 whole entry): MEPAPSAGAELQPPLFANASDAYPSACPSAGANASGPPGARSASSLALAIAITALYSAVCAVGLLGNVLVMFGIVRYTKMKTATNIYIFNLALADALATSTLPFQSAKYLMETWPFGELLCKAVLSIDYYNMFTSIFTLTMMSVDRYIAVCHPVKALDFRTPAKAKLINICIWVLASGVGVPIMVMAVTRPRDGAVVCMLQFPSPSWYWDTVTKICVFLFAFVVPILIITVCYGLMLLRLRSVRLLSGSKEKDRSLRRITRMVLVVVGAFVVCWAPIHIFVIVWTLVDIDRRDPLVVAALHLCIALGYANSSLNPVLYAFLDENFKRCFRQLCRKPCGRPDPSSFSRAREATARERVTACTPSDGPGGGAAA
# Sequence of 5-hydroxytryptamine receptor 5A (P47898 whole entry): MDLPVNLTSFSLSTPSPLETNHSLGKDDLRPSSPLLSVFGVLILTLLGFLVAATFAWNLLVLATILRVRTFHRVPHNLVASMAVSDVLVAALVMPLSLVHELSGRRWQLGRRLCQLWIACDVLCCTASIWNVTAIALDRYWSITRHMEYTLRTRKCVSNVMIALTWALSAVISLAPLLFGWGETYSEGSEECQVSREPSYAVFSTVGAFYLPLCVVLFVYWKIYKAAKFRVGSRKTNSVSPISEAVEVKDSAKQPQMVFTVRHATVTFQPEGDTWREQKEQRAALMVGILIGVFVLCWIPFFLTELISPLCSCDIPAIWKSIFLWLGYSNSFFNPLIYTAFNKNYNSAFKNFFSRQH
# Sequence of Large T antigen (P03070 whole entry): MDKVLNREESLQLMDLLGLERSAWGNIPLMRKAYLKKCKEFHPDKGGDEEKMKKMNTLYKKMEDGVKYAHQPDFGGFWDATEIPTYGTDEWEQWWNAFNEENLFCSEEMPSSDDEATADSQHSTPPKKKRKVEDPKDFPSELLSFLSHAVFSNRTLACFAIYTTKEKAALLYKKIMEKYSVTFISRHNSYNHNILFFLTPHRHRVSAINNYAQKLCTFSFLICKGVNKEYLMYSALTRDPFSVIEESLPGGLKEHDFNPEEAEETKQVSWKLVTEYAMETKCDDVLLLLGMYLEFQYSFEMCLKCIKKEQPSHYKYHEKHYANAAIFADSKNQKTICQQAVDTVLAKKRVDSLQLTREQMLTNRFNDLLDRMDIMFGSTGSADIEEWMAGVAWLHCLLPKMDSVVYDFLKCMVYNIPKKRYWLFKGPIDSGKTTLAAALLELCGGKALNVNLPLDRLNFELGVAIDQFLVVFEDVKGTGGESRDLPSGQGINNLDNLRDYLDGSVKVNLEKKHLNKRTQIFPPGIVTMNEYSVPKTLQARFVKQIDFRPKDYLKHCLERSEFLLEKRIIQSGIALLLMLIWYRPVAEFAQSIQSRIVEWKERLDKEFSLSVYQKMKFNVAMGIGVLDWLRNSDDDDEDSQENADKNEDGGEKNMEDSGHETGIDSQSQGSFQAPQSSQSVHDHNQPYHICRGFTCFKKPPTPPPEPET
smiles,measurement,setting,value
COc1ccccc1NS(=O)(=O)c1cccc(NC(=O)c2ccc3ccccc3n2)c1,EC50,HEK293 [1],6.61 µM (active)
same,IC50,HEK293 [2],7.38 µM (active)
same,IC50,HEK293 [3],> 20 µM (inactive)
CN1CCN(c2ccc(NC(=O)c3ccc(-c4cccc([N+](=O)[O-])c4)o3)cc2)CC1,AC50,[4],10.3 µM (active)
same,EC50,[5],70 µM (inactive)
same,EC50,[6],299 nM (active)
same,EC50,[7],> 92.5 µM (inactive)
same,CC50,[8],29 µM (active)
same,EC50,Mu-type opioid receptor,> 30.8 µM (inactive)
COc1ccc(C2CC(=O)C(C(c3ccc(O)cc3)C3C(=O)CC(c4ccc(OC)cc4)CC3=O)C(=O)C2)cc1 (stereo not drawn),IC50,Coagulation factor XII,> 50 µM (inactive)
same,IC50,Large T antigen,37.3 µM (active)
COc1ccc(-c2oc3ncnc(N)c3c2-c2ccccc2)cc1,IC50,Bcl-2-related protein A1,> 20 µM (inactive)
same,IC50,[9],3.58 µM (active)
same,IC50,[10],7.81 µM (active)
COc1cc(Br)cc(/C=N/NC(=O)Cc2ccc(C(F)(F)F)cc2[N+](=O)[O-])c1O,EC50,[11],> 120 µM (not active)
same,EC50,[12],9.21 µM (active)
same,EC50,[5],> 92.4 µM (inactive)
same,EC50,[13],1.84 µM (active)
same,EC50,[7],> 92.4 µM (inactive)
same,EC50,Streptococcus,2.42 µM (active)
same,AC50,INS1,4.33 µM (active)
same,EC50,[14],12.6 µM (active)
same,EC50,Mu-type opioid receptor,> 92.4 µM (inactive)
